Values joined by “and” are separate entries in the source; they are usually repeats but may differ in a detail not shown here. Equal values may be shown once.
These molecules were tested against T1, Mushroom tyrosinase (Agaricus bisporus, UniProt O42713+Q00024+C7FF04+C7FF05) (assay: Inhibition of mushroom tyrosinase using L-DOPA as substrate preincubated for 20 mins followed by substrate addition incubated for 10 mins by absorbance based analysis).
Type: protein assay

Structure (SMILES) | IC50
Cc1ccc(C(C)C)c(OCc2cn(Cc3cc(=O)c(O)co3)nn2)c1 | 0.69 µM
O=c1cc(OCc2cn(Cc3cc(=O)c(O)co3)nn2)c2ccccc2o1 | 0.02 µM
COc1cc(C(C)=O)ccc1OCc1cn(Cc2cc(=O)c(O)co2)nn1 | 0.03 µM
O=c1ccc2ccc(OCc3cn(Cc4cc(=O)c(O)co4)nn3)cc2o1 | 0.23 µM
Cc1ccc(C(C)C)cc1OCc1cn(Cc2cc(=O)c(O)co2)nn1 | 0.07 µM
O=c1cc(Cn2cc(COc3ccc4c(c3)OCO4)nn2)occ1O | 0.06 µM

What follows are molecules tested against T1, Mushroom tyrosinase (assay: Inhibition of mushroom tyrosinase using L-DOPA as substrate incubated for 20 mins).
Type: protein assay

Structure (SMILES) | IC50
Fc1ccc(/C=N/n2c(Cc3ccccc3F)n[nH]c2=S)cc1 | 10.09 µM
Oc1ccccc1Cc1n[nH]c(=S)n1/N=C/c1ccc[nH]1 | 26.02 µM
COc1ccccc1Cc1n[nH]c(=S)n1/N=C/Cc1ccc(O)cc1 | 20.27 µM
Oc1ccc(/C=N/n2c(Cc3ccccc3F)n[nH]c2=S)cc1 | 6.23 µM

What follows are molecules tested against T1, Mushroom tyrosinase (assay: Inhibition of mushroom tyrosinase by spectrophotometric method).
Type: protein assay

Structure (SMILES) | IC50
CCCCCn1nc(-c2ccccc2)n(CC(=O)NNC(=O)Nc2cccc(C(F)(F)F)c2)c1=O | 0.001 µM
CCCCCn1nc(-c2ccccc2)n(CC(=O)NNC(=O)Nc2cc(C(F)(F)F)cc(C(F)(F)F)c2)c1=O | 0.001 µM
CCCCCn1nc(-c2ccccc2)n(CC(=O)NNC(=O)Nc2ccccc2C(F)(F)F)c1=O | 0.001 µM

Each molecule was assayed against T2, Mushroom tyrosinase (Agaricus bisporus) (UniProt O42713+Q00024+C7FF04+C7FF05) (assay: Inhibition of mushroom tyrosinase at 100 uM relative to control).
Type: protein assay

Structure (SMILES) | inhibition
Nn1c(S)nnc1N/N=C/c1cccc(Cl)c1 | 81%
Nn1c(S)nnc1N/N=C/c1cccc(C(F)(F)F)c1 | 95%
COc1ccc(/C=N/Nc2nnc(S)n2N)cc1O | 98%

The molecules below were run against T1, Mushroom tyrosinase (assay: (§1) Inhibition of mushroom tyrosinase using L-DOPA as substrate incubated for 15 mins by spectrophotometric analysis).
Type: protein assay

Structure (SMILES) | IC50
O=C1NC(=S)NC(=O)C1=Cc1ccccc1OCc1cn(Cc2ccccc2)nn1 | 44.2 µM
O=C1NC(=O)C(=Cc2ccccc2OCc2cn(Cc3ccc(Br)cc3)nn2)C(=O)N1 | 26.8 µM and 49.1 µM
Cc1cc(C=C2C(=O)NC(=S)NC2=O)c(OCc2cn(Cc3ccc(F)cc3)nn2)cc1Br | 24.6 µM
O=C1NC(=O)C(=Cc2ccccc2OCc2cn(Cc3ccccc3)nn2)C(=O)N1 | 44.2 µM

Each molecule was assayed against T2, Mushroom tyrosinase (Agaricus bisporus) (assay: as §1).
Type: protein assay

Structure (SMILES) | inhibition
O=c1oc2ccccc2c2nn(Cc3cn(-c4ccccc4)nn3)cc12 | 69%
O=c1oc2ccccc2c2nn(Cc3cn(-c4c(Cl)cc(Cl)cc4Cl)nn3)cc12 | 58%
O=c1oc2ccccc2c2c1cnn2Cc1cn(-c2ccccc2)nn1 | 85%

These molecules were tested against T3, Tyrosinase (Homo sapiens, UniProt P14679) (assay: Inhibition of C-terminal His-tagged truncated form of human tyrosinase using L-DOPA as substrate by spectrophotometric assay).
T3 sequence (P14679 whole entry): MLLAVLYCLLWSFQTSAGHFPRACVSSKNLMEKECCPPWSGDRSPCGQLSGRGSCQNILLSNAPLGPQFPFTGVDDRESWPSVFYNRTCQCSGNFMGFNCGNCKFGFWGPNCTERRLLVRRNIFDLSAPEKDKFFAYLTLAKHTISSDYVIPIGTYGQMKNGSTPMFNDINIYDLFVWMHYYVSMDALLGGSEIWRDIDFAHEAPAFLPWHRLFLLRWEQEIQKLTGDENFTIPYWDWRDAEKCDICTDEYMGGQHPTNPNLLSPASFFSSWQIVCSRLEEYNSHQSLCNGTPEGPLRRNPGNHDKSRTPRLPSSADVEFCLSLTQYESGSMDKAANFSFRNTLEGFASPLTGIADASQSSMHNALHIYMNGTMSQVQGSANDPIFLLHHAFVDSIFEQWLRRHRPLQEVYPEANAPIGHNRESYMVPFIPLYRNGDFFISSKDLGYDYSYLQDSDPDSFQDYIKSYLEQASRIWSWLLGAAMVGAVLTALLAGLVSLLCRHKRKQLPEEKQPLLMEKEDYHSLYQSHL

Structure (SMILES) | IC50
O=C1c2ccccc2C(=O)N1Cc1cn(Cc2ccc(Br)cc2)nn1 | 40.3 µM
O=C1c2ccccc2C(=O)N1Cc1cn(Cc2ccccc2Br)nn1 | 26.5 µM
O=C1c2ccccc2C(=O)N1Cc1cn(Cc2cccc(Cl)c2)nn1 | 48.3 µM
O=C1c2ccccc2C(=O)N1Cc1cn(Cc2ccccc2Cl)nn1 | 47.2 µM
O=C1c2ccccc2C(=O)N1Cc1cn(Cc2ccccc2[N+](=O)[O-])nn1 | 26.2 µM
O=C1NC(=S)NC(=O)C1=Cc1ccccc1OCc1cn(Cc2ccc(Br)cc2)nn1 | 44.2 µM

The molecules below were run against T3, Tyrosinase (assay: Competitive inhibition of His-tagged human tyrosinase expressed in HEK293 cells).
Type: cell-based

Structure (SMILES) | IC50
NC(=S)N/N=C/c1ccc(OCc2cn(Cc3ccc(Cl)c(Cl)c3)nn2)cc1 | 0.22 µM
NC(=S)N/N=C/c1ccc(OCc2cn(Cc3ccc(F)cc3)nn2)cc1 | 0.22 µM
Cc1cccc(Cn2cc(COc3ccc(/C=N/NC(N)=S)cc3)nn2)c1 | 0.22 µM
Cc1ccc(Cn2cc(COc3ccc(/C=N/NC(N)=S)cc3)nn2)cc1 | 0.22 µM

The molecules below were run against T1, Mushroom tyrosinase (assay: Binding affinity to mushroom tyrosinase assessed as inhibition constant).
Type: protein assay

Structure (SMILES) | Ki
CCCCCn1nc(-c2ccccc2)n(CC(=O)NNC(=S)Nc2ccccc2C(F)(F)F)c1=O | 0.1 µM
CCCCCn1nc(-c2ccccc2)n(CC(=O)NNC(=O)Nc2ccccc2C(F)(F)F)c1=O | 0.01 µM
Cc1cc(C=C2C(=O)NC(=S)NC2=O)c(OCc2cn(Cc3ccc(F)cc3)nn2)cc1Br | 60.27 µM

What follows are molecules tested against T1, Mushroom tyrosinase (assay: Inhibition of mushroom tyrosinase using L-DOPA as substrate measured for 15 mins by spectrophotometer analysis).
Type: protein assay

Structure (SMILES) | IC50
Cc1c(NC(=O)Cn2cc(COc3ccc(/C=N/NC(N)=S)cc3)nn2)cccc1[N+](=O)[O-] | 0.12 µM
COc1ccc(NC(=O)Cn2cc(COc3ccc(/C=N/NC(N)=S)cc3)nn2)cc1 | 0.25 µM

The molecules below were run against T1, Mushroom tyrosinase (assay: Inhibition of mushroom tyrosinase using L-DOPA as substrate preincubated for 10 mins followed by substrate addition and measured after 15 mins by spectrophotometric method).
Type: protein assay

Structure (SMILES) | IC50
Nc1nc(Cc2nnc(SCC(=O)NCCc3ccccc3)n2-c2ccccc2)cs1 | 0.01 µM
Cc1cccc(CNC(=O)CSc2nnc(Cc3csc(N)n3)n2-c2ccccc2)c1C | 2.01 µM
CCc1ccc(CNC(=O)CSc2nnc(Cc3csc(N)n3)n2-c2ccccc2)cc1 | 0.122 µM
Cc1ccc(CNC(=O)CSc2nnc(Cc3csc(N)n3)n2-c2ccccc2)cc1C | 0.113 µM
Cc1cc(C)cc(CNC(=O)CSc2nnc(Cc3csc(N)n3)n2-c2ccccc2)c1 | 0.24 µM
Cc1cccc(C)c1CNC(=O)CSc1nnc(Cc2csc(N)n2)n1-c1ccccc1 | 0.05 µM
Cc1ccccc1CNC(=O)CSc1nnc(Cc2csc(N)n2)n1-c1ccccc1 | 0.015 µM

What follows are molecules tested against T1, Mushroom tyrosinase (assay: Inhibition of mushroom tyrosinase using L-DOPA as substrate preincubated for 10 mins).
Type: protein assay

Structure (SMILES) | IC50
O=C(CSc1nnc(-c2ccccc2)n1-c1ccc(F)cc1)Nc1ccc(Br)cc1 | 0.142 µM
Cc1ccc(-c2nnc(SCc3cc(=O)c(O)co3)n2N)cc1 | 6.25 µM
Cn1cnnc1SCc1cc(=O)c(O)co1 | 19.18 µM
Nn1c(SCc2cc(=O)c(O)co2)nnc1-c1ccccc1 | 7.45 µM
Nn1c(SCc2cc(=O)c(O)co2)nnc1-c1ccccc1Br | 5.98 µM
O=C(CSc1nnc(-c2ccc(F)cc2)n1-c1ccc(F)cc1)Nc1ccccc1 | 0.124 µM
O=C(CSc1nnc(-c2ccccc2F)n1-c1ccc(F)cc1)Nc1ccccc1 | 0.11 µM
Nn1c(SCc2cc(=O)c(O)co2)nnc1-c1ccccc1Cl | 5.35 µM
CCCCCn1nc(-c2ccccc2)n(CC(=O)NNC(=O)Nc2ccc(Cl)cc2Cl)c1=O | 0.001 µM
Nn1c(SCc2cc(=O)c(O)co2)nnc1-c1ccc(Cl)cc1 | 4.5 µM
O=c1cc(O)oc(CSc2nnc(-c3ccccc3Cl)n2/N=C/c2ccc(O)c(O)c2)c1 | 5.2 µM
O=c1cc(O)oc(CSc2nnc(-c3ccccc3)n2NCc2ccc(O)cc2O)c1 | 1.35 µM
Cc1nnc(SCc2cc(=O)c(O)co2)n1N | 91.03 µM

What follows are molecules tested against T1, Mushroom tyrosinase (assay: Inhibition of mushroom tyrosinase using L-DOPA as substrate pre-treated for 10 mins followed by substrate addition measured for 20 mins by spectrophotometric analysis).
Type: protein assay

Structure (SMILES) | IC50
CCn1c(Cc2csc(N)n2)nnc1SCc1cccc(Br)c1 | 0.002 µM
CCn1c(Cc2csc(N)n2)nnc1SCc1ccc(Cl)cc1 | 0.006 µM
CCn1c(Cc2csc(N)n2)nnc1SCc1ccccc1Cl | 0.006 µM
CCn1c(Cc2csc(N)n2)nnc1SCc1ccc(Cl)cc1Cl | 0.001 µM
Cc1ccccc1CNC(=O)CSc1nnc(Cc2csc(N)n2)n1-c1ccccc1 | 16.832 µM

What follows are molecules tested against T1, Mushroom tyrosinase (assay: Inhibition of mushroom tyrosinase using L-dopa as substrate by spectrophotometric method).
Type: protein assay

Structure (SMILES) | IC50
Nn1c(S)nnc1N/N=C\c1ccccc1O | 1.52 µM
Nn1c(S)nnc1N/N=C\c1cccc(F)c1 | 12.5 µM
Nn1c(S)nnc1N/N=C\c1cccc(O)c1 | 7 µM

The molecules below were run against T1, Mushroom tyrosinase (assay: Inhibition of mushroom tyrosinase).
Type: protein assay

Structure (SMILES) | IC50
Nn1c(S)nnc1N/N=C/c1cccc(Cl)c1 | 15 µM
CCc1ccccc1NC(=O)CSc1nnc(CCCc2c[nH]c3ccccc23)n1CC | 0.033 µM
O=C1N=C(Nc2ccccc2)S/C1=C\c1ccccc1OCc1cn(Cc2cccc(Br)c2)nn1 | 9.81 µM
NC(=S)N/N=C/c1ccc(OCc2cn(CC(=O)NCc3ccccc3)nn2)cc1 | 0.11 µM
COc1ccccc1-n1c(SCC(=O)Nc2ccc(Br)cc2)nnc1-c1ccccc1F | 0.0048 µM
Cc1ccc(Cn2cc(COc3ccc(-c4nc5ccccc5[nH]4)cc3)nn2)cc1C | 9.42 µM
Nn1c(S)nnc1N/N=C/c1cccc(C(F)(F)F)c1 | 9 µM
Cc1ccc(Cn2cc(COc3ccc(-c4nc5ccccc5[nH]4)cc3)nn2)cc1 | 10.34 µM
COc1ccc2c(c1)CC/C(=C\c1ccc(OCc3cn(Cc4cccc(Cl)c4)nn3)c(OC)c1)C2=O | 4.64 µM
COc1cc(C=O)ccc1O [VANILLIN] | 4103 µM
O=C1N=C(Nc2ccncc2)S/C1=C\c1ccccc1OCc1cn(Cc2ccccc2Cl)nn1 | 6.34 µM
CCn1c(CCCc2c[nH]c3ccccc23)nnc1SCC(=O)Nc1ccc(C)cc1C | 0.034 µM
C=CCc1ccc(O)c(OC)c1 [EUGENOL] | 923 µM
O=C1N=C(Nc2ccccc2)S/C1=C\c1ccccc1OCc1cn(Cc2ccccc2)nn1 | 8.92 µM
Cc1ccc2nc(-c3ccc(OCc4cn(Cc5ccccc5)nn4)cc3)[nH]c2c1 | 43.3 µM
COc1cc(/C=N/Nc2nnc(S)n2N)ccc1O | 14.6 µM
O=C1N=C(Nc2ccccc2)S/C1=C\c1ccc(OCc2cnnn2Cc2ccc(Cl)c(Cl)c2)cc1 | 49.4 µM
COc1ccc(/C=N/Nc2nnc(S)n2N)cc1O | 3.4 µM
COc1ccc2c(c1)CC/C(=C\c1ccc(OCc3cn(Cc4ccccc4F)nn3)c(OC)c1)C2=O | 67.18 µM
COc1ccccc1-n1c(SCC(=O)Nc2ccccc2)nnc1-c1ccccc1 | 0.0238 µM
O=C1N=C(Nc2ccncc2)S/C1=C\c1ccccc1OCc1cn(Cc2ccc(Cl)c(Cl)c2)nn1 | 5.9 µM
CCOc1ccc(NC(=O)CSc2nnc(CCCc3c[nH]c4ccccc34)n2CC)cc1 | 0.072 µM
CCn1c(CCCc2c[nH]c3ccccc23)nnc1SCC(=O)Nc1c(C)cccc1C | 0.035 µM
CCn1c(CCCc2c[nH]c3ccccc23)nnc1SCC(=O)Nc1cccc(C)c1C | 0.142 µM
CCn1c(CCCc2c[nH]c3ccccc23)nnc1SCC(=O)Nc1ccccc1C | 0.036 µM

Reference: ChEMBL document CHEMBL5518158, “Recent advances in triazoles as tyrosinase inhibitors” (Eur J Med Chem, 2023)
